A word on the AC50: it is the concentration at which the activity in the assay is half-maximal. Low values mean greater potency, high ones weaker potency.

Results on 7 compounds are retold here after ChEMBL document CHEMBL5291721, “A preclinical secondary pharmacology resource illuminates target-adverse drug reaction associations of marketed drugs” (Nat Commun, 2023).

Targets include D(3) dopamine receptor (Homo sapiens, UniProt P35462); D(1A) dopamine receptor (Homo sapiens, UniProt P21728); Histamine H3 receptor (Homo sapiens, UniProt Q9Y5N1); Mu-type opioid receptor (Homo sapiens, UniProt P35372).
Test [1] deals with Sodium-dependent noradrenaline transporter (Homo sapiens, UniProt P23975).
Sodium-dependent noradrenaline transporter, sequence (P23975 whole entry): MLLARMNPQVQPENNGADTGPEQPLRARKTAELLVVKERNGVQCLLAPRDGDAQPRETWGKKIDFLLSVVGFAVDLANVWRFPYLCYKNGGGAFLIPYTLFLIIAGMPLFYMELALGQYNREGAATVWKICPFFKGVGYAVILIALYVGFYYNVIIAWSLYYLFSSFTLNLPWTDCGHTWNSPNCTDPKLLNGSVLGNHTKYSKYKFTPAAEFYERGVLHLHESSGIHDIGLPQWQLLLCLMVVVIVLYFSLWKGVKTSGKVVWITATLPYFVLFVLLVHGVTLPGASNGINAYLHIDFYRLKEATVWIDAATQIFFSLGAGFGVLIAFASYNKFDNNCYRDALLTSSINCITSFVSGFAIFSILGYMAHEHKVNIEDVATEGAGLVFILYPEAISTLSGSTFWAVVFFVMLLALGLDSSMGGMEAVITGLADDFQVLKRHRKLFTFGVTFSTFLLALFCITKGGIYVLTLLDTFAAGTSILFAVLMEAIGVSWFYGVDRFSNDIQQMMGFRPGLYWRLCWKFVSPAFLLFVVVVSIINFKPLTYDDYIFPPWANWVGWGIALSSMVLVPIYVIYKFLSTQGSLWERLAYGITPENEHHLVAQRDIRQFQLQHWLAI
For test [2], the target named is T1, 5-hydroxytryptamine receptor 1A (Homo sapiens, UniProt P08908).
T1 sequence (P08908 whole entry): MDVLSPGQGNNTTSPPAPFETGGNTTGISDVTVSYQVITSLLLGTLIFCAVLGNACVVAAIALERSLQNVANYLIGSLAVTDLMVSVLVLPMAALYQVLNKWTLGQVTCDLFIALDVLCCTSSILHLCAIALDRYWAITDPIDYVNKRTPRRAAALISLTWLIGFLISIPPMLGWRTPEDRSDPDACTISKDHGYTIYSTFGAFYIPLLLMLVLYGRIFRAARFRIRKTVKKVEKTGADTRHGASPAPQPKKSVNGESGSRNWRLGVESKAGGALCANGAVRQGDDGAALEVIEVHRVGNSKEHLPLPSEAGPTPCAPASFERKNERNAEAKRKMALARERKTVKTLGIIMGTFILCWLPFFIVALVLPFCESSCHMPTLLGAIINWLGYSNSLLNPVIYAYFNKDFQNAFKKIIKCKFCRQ

Test [3] concerns the target Sodium-dependent dopamine transporter (Homo sapiens, UniProt Q01959).
For test [4], the target named is Voltage-gated inwardly rectifying potassium channel KCNH2 (Homo sapiens, UniProt Q12809). The class given is functional.
Voltage-gated inwardly rectifying potassium channel KCNH2, sequence (Q12809 whole entry): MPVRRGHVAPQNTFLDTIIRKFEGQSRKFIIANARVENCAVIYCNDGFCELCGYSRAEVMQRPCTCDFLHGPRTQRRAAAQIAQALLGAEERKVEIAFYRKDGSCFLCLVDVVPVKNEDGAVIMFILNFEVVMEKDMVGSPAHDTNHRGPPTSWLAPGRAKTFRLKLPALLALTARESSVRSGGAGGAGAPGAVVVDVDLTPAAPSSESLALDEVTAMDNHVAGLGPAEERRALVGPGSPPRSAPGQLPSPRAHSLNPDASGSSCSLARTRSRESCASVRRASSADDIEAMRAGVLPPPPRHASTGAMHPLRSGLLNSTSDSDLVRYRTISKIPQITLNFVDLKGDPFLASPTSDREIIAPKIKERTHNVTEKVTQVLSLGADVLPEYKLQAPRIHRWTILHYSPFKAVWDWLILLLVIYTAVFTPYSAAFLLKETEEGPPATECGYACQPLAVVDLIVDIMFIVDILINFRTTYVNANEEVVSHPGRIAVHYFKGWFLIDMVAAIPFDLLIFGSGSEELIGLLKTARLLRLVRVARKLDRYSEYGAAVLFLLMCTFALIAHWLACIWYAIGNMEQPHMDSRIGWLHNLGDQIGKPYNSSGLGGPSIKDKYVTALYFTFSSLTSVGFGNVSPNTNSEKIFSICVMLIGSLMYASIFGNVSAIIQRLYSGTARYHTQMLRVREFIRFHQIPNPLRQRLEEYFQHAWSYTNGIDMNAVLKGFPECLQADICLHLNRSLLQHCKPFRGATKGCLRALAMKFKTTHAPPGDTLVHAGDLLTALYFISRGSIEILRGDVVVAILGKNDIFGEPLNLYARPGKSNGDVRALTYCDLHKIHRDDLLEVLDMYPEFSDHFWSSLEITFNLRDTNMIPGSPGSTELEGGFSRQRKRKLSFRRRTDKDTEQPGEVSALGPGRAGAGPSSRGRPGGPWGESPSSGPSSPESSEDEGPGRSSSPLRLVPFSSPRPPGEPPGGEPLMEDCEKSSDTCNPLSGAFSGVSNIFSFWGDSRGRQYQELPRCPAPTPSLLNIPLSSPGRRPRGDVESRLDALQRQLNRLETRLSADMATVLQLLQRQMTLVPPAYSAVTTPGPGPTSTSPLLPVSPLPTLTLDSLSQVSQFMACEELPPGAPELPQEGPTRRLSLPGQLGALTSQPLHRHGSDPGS
In the next test the target is T2, Progesterone receptor (Homo sapiens, UniProt P06401).
T2 sequence (P06401 whole entry): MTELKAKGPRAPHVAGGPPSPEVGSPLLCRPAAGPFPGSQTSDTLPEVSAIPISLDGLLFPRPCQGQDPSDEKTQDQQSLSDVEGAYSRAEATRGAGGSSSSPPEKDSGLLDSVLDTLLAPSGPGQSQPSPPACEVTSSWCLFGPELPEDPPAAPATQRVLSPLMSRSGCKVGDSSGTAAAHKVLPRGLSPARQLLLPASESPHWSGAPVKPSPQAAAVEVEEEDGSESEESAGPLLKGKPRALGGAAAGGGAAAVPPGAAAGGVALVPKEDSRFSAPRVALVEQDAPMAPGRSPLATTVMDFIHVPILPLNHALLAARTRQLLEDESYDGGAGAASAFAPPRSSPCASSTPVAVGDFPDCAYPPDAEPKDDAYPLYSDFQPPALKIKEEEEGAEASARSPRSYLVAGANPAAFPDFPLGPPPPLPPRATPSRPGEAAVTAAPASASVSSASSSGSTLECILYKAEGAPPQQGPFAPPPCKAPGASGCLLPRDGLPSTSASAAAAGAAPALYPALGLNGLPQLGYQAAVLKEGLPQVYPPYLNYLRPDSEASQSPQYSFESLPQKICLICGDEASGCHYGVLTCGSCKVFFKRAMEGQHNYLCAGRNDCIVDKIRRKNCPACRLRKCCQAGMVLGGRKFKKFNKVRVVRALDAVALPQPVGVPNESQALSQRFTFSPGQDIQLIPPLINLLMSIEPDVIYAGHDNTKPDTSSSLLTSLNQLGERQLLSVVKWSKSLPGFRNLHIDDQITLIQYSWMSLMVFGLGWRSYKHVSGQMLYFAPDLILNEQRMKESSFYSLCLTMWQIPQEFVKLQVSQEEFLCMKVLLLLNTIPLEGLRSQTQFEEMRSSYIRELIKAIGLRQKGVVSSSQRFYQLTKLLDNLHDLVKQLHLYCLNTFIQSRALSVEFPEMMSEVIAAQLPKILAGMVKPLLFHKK

Test [5] deals with 3',5'-cyclic-AMP phosphodiesterase 4A (Homo sapiens, UniProt P27815). The class given is functional.
In test [6] the target is T3, Alpha-2A adrenergic receptor (Homo sapiens, UniProt P08913).
T3 sequence (P08913 whole entry): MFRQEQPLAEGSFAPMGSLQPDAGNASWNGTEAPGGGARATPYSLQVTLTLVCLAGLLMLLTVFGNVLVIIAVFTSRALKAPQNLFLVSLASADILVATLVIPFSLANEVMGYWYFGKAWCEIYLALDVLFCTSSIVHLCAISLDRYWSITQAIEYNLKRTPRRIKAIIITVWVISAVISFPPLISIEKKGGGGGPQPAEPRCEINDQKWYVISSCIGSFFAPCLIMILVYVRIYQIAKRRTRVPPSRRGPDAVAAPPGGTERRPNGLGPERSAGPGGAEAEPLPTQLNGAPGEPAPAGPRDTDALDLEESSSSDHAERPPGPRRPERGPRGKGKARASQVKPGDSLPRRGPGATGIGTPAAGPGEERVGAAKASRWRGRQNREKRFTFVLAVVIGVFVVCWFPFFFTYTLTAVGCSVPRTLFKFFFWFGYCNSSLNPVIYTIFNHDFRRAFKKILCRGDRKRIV

Test [7] has as its target 5-hydroxytryptamine receptor 2B (Homo sapiens, UniProt P41595). The class given is functional, cell-based.
The next test concerns the target Acetylcholinesterase (Homo sapiens, UniProt P22303). The class given is functional.
The target of the next test is Prothrombin (Homo sapiens, UniProt P00734). The class given is functional.
The target in test [8] is T4, Thromboxane A2 receptor (Homo sapiens, UniProt P21731).
T4 sequence (P21731 whole entry): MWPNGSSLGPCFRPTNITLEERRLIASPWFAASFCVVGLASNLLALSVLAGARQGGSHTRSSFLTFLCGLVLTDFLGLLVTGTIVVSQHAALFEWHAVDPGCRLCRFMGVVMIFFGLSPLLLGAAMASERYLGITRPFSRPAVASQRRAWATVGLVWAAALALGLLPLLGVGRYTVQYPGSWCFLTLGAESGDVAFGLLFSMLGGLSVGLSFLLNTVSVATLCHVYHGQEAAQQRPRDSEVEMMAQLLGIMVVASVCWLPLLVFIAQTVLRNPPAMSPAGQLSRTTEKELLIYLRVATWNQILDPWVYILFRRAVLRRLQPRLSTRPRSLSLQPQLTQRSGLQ
The class given is functional, cell-based.

The target in test [9] is Prostaglandin G/H synthase 1 (Homo sapiens, UniProt P23219). The class given is functional.
Test [10] addresses T4, Thromboxane A2 receptor. The class given is functional, cell-based. This is another data set of the same source.
Also: assay procedure not described here.

D(3) dopamine receptor, sequence (P35462 whole entry): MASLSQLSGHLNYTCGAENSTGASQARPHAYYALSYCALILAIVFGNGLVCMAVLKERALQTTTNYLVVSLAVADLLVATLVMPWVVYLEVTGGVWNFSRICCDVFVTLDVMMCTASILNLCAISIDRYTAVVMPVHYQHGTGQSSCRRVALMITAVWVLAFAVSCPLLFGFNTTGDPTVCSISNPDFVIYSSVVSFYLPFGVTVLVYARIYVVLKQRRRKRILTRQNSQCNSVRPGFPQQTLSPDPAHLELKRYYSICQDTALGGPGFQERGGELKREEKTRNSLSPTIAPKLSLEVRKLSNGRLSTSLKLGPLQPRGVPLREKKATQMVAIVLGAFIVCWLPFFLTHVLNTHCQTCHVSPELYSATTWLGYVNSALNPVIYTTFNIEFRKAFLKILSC
Mu-type opioid receptor, sequence (P35372 whole entry): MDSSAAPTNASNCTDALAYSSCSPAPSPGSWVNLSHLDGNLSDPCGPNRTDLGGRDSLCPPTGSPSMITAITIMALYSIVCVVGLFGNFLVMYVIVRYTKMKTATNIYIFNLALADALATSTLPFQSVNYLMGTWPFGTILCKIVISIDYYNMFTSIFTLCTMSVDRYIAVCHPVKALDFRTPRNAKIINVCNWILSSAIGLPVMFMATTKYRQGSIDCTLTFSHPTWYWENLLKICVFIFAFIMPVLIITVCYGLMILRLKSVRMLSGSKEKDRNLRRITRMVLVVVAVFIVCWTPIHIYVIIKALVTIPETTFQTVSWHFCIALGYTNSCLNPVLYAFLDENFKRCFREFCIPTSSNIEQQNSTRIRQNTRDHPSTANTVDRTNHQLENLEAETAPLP
Histamine H3 receptor, sequence (Q9Y5N1 whole entry): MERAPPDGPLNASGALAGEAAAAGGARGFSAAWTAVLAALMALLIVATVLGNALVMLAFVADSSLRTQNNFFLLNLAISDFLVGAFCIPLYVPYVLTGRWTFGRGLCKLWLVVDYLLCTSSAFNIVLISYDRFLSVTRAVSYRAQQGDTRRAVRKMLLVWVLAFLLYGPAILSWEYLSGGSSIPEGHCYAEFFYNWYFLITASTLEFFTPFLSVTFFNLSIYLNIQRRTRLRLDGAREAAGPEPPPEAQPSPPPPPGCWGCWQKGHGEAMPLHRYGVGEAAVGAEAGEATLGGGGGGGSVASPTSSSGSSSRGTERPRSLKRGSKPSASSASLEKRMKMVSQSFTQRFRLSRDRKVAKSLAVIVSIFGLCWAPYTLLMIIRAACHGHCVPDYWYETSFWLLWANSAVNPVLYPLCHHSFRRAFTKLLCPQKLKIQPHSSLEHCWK
Acetylcholinesterase, sequence (P22303 whole entry): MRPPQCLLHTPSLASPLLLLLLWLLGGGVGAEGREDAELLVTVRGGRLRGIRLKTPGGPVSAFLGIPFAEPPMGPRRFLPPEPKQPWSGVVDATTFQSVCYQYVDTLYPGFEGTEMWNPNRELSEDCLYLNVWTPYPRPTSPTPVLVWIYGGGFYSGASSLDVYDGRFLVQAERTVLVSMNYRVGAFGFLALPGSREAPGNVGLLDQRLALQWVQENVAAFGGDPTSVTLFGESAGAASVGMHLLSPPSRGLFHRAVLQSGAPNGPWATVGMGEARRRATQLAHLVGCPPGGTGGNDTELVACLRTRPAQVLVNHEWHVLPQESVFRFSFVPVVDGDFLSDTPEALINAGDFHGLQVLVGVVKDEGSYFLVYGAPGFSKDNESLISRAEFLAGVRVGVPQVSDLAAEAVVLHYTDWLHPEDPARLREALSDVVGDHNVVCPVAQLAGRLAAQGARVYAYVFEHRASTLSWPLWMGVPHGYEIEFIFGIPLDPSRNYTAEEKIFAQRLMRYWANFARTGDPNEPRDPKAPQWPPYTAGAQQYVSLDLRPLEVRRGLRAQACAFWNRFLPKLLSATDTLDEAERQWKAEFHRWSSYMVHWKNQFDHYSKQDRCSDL
D(1A) dopamine receptor, sequence (P21728 whole entry): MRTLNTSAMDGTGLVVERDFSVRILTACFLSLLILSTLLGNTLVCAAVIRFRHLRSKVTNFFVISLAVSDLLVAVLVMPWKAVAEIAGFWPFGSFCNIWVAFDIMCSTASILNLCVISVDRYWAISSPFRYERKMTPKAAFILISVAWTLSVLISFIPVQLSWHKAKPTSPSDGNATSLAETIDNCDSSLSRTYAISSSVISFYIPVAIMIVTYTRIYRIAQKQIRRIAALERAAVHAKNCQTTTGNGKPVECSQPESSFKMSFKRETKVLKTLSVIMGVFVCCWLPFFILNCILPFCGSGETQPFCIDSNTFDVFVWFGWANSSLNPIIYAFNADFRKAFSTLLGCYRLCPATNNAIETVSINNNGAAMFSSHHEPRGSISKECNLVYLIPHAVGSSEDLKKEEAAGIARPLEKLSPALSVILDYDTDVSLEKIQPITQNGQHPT
5-hydroxytryptamine receptor 2B, sequence (P41595 whole entry): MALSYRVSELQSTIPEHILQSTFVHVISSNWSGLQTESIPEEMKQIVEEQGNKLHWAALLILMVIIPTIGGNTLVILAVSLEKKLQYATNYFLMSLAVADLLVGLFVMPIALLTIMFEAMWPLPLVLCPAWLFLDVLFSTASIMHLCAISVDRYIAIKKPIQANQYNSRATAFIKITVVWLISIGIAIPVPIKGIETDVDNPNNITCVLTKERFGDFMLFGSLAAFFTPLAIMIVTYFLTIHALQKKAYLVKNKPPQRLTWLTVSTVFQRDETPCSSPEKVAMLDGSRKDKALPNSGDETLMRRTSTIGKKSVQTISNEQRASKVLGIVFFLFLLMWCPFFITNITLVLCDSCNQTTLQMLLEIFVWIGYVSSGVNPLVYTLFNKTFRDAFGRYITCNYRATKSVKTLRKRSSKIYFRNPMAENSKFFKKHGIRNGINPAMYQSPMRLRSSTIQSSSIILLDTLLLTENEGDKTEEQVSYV

Consider `Cc1cc(=O)[nH]c(=S)[nH]1` [METHYLTHIOURACIL], for which the AC50 (in test [1]; in test [2]; in test [3]; in [4]; at D(3) dopamine receptor; at Progesterone receptor) was more than 30 µM in each case. Further, the concentration at half-maximal activity (AC50) (in test [5]; on D(1A) dopamine receptor; at Histamine H3 receptor; in test [6]; in test [7]; at Mu-type opioid receptor) was more than 30 µM in each case. Moreover, the concentration at half-maximal activity (AC50) on Acetylcholinesterase is more than 30 µM; at Prothrombin, more than 30 µM; at Thromboxane A2 receptor [8], more than 30 µM; in test [9], 13.1 µM; at Thromboxane A2 receptor [10], more than 30 µM.
For the compound `COc1ccccc1OC1(C)OC(=O)c2ccccc2O1` (centres undefined) [GUAIMESAL], the AC50 (in test [1]; in [2]; in [3]; in test [4]; at D(3) dopamine receptor; on Progesterone receptor) was more than 30 µM each time. The concentration at half-maximal activity (AC50) (in test [5]; at D(1A) dopamine receptor; on Histamine H3 receptor; in test [6]; in test [7]; at Mu-type opioid receptor) was more than 30 µM each time. The half-maximal activity concentration (AC50) (at Acetylcholinesterase; at Prothrombin; at Thromboxane A2 receptor [8]; in [9]; at Thromboxane A2 receptor [10]) was more than 30 µM throughout.
For the compound `CC[C@@H]1C[C@]1(NC(=O)[C@@H]1C[C@@H]2CN1C(=O)[C@H](C(C)(C)C)NC(=O)OCC(C)(C)CCCCc1cccc3c1CN(C3)C(=O)O2)C(=O)NS(=O)(=O)C1CC1`, the AC50 (in test [1]; in test [2]; in test [3]; in [4]; on D(3) dopamine receptor; on Progesterone receptor) was more than 30 µM throughout. Besides, the concentration at half-maximal activity (AC50) (in [5]; on D(1A) dopamine receptor; on Histamine H3 receptor; in test [6]; in [7]; on Mu-type opioid receptor) was more than 30 µM throughout. For the same compound, the AC50 on Acetylcholinesterase is more than 30 µM; at Prothrombin it was more than 30 µM; at Thromboxane A2 receptor [8], more than 3 µM; in [9] it was 26.8 µM; on Thromboxane A2 receptor [10], 29.5 µM.
Regarding `O=C(O)Cc1ccccc1Oc1ccc(Cl)cc1Cl` [FENCLOFENAC], the AC50 (in test [1]; in test [2]; in test [3]; in test [4]; on D(3) dopamine receptor; on Progesterone receptor) was more than 30 µM each time. Further, the AC50 (in test [5]; on D(1A) dopamine receptor; on Histamine H3 receptor; in test [6]; in test [7]; on Mu-type opioid receptor) was more than 30 µM throughout. Moreover, the half-maximal activity concentration (AC50) (on Acetylcholinesterase; at Prothrombin; at Thromboxane A2 receptor [8]; in [9]; on Thromboxane A2 receptor [10]) was more than 30 µM in each case.
Consider `COC(=O)[C@@H](N)Cc1ccc(O)c(O)c1` [MELEVODOPA], for which the AC50 (in [1]; in test [2]; in test [3]; in [4]; on D(3) dopamine receptor; on Progesterone receptor) was more than 30 µM in each case. Further, the AC50 was more than 30 µM in [5]; more than 30 µM on D(1A) dopamine receptor; more than 30 µM on Histamine H3 receptor; 20.3 µM in [6]; more than 30 µM in test [7]; more than 30 µM on Mu-type opioid receptor. In addition, the AC50 (on Acetylcholinesterase; at Prothrombin; at Thromboxane A2 receptor [8]; in test [9]; on Thromboxane A2 receptor [10]) was more than 30 µM in each case.
Consider `Cc1cc(=O)oc2cc(O)ccc12` [HYMECROMONE], for which the AC50 (in [1]; in test [2]; in [3]; in test [4]; at D(3) dopamine receptor; on Progesterone receptor) was more than 30 µM each time. Also, the AC50 (in test [5]; at D(1A) dopamine receptor; on Histamine H3 receptor; in test [6]; in test [7]; on Mu-type opioid receptor) was more than 30 µM in each case. For the same compound, the half-maximal activity concentration (AC50) at Acetylcholinesterase was more than 30 µM; at Prothrombin it was more than 3 µM; on Thromboxane A2 receptor [8], more than 30 µM; in [9], more than 30 µM; at Thromboxane A2 receptor [10], more than 30 µM.
For `C[C@H]1O[C@@H](O[C@H]2CC[C@@]3(C)[C@H](CC[C@@H]4[C@@H]3C[C@@H](O)[C@]3(C)[C@@H](C5=CC(=O)OC5)CC[C@]43O)C2)C[C@H](O)[C@@H]1O[C@H]1C[C@H](O)[C@H](O[C@H]2C[C@H](O)[C@H](O[C@@H]3O[C@H](CO)[C@@H](O)[C@H](O)[C@H]3O)[C@@H](C)O2)[C@@H](C)O1` [DESLANOSIDE], the AC50 (in test [1]; in test [2]; in test [3]; in test [4]; on D(3) dopamine receptor; at Progesterone receptor) was more than 30 µM in each case. Further, the half-maximal activity concentration (AC50) (in test [5]; at D(1A) dopamine receptor; on Histamine H3 receptor; in test [6]; in test [7]; on Mu-type opioid receptor) was more than 30 µM each time. Moreover, the AC50 (at Acetylcholinesterase; at Prothrombin; at Thromboxane A2 receptor [8]; in test [9]; on Thromboxane A2 receptor [10]) was more than 30 µM throughout.
